Where a name gives a salt, the structure may show the parent alone.

The test system of the first assay is cultured human mast cells (CHMC). In words: CHMC low cell density ionomycin activation: tryptase assay. It counts as cell-based.
Details: not given
With `COC(=O)C(C)Oc1ccc(Nc2ncc(F)c(Nc3ccc(OC(C)C(=O)OC)cc3)n2)cc1` (racemic) [R926254, (±)-N2,N4-Bis[4-methoxycarbonyl(α-methyl)methyleneoxyphenyl]-5-fluoro-2,4-pyrimidinediamine], it took 4 µM to reach half-maximal inhibition (IC50).
Regarding `CNC(=O)C1Cc2cc(Nc3ncc(F)c(Nc4cccc(OC(F)(F)F)c4)n3)ccc2O1` (racemic) [R927040, (±)-N2-[2,3-Dihydro-(N-methylamino)carbonylbenzofuran-5-yl]-5-fluoro-N4-(3-trifluoromethoxyphenyl)-2,4-pyrimidinediamine], the IC50 (in general, the concentration needed to halve the response being measured) was greater than 10 µM.
`Cc1cc(Nc2nc(Cl)ncc2F)ccc1F` [Compound R926921] came in with an IC50 greater than 10 µM.
`Cc1ccc(Nc2nc(Cl)ncc2F)cc1CNC(=O)OC(C)(C)C` [Compound R926924] yielded an IC50 greater than 10 µM.
In turn, `CNC(=O)COc1cccc(Nc2ncc(F)c(Nc3ccc4c(c3)N(C)CCO4)n2)c1` [R909259, 5-Fluoro-N2-[3-(N-methylaminocarbonylmethyleneoxy)phenyl]-N4-(N-methyl-1,4-benzoxazin-6-yl)pyrimidinediamine] showed an IC50 greater than 10 µM.
As for `CNC(=O)COc1cccc(Nc2ncc(F)c(Nc3ccc4c(c3)NCCO4)n2)c1` [R920395, N4-(1,4-Benzoxazin-6-yl)-5-fluoro-N2-[3-(N-methylamino)carbonylmethyleneoxyphenyl]-2,4-pyrimidinediamine Hydrogen Chloride Salt], the IC50 is greater than 10 µM.
Regarding `Oc1cccc(Nc2ncc(F)c(Nc3ccc4c(c3)OCCO4)n2)c1` [R925796, N4-(3,4-Ethylenedioxyphenyl)-5-fluoro-N2-(3-hydroxyphenyl)-2,4-pyrimidinediamine], the IC50 is greater than 10 µM.
`Oc1cccc(Nc2ncc(F)c(Nc3cccc(O)c3)n2)c1` [R926461, N2,N4-Bis(3-sodiumphenoxy)-5-fluoro-2,4-pyrimidinediamine] gave an IC50 greater than 10 µM.
`O=C(c1cc2cc(Nc3ncc(F)c(Nc4ccc5c(c4)OCCO5)n3)ccc2o1)N1CCOCC1` [R926492, N4-(3,4-Ethylenedioxyphenyl)-5-fluoro-N2-[2-(N-morpholino)carbonylbenzofuran-5-yl]-2,4-pyrimidinediamine] returned an IC50 greater than 10 µM.
`O=C(c1cc2cc(Nc3ncc(F)c(Nc4ccc5c(c4)OCCO5)n3)ccc2o1)N1CCNCC1` [R926499, N4-(3,4-Ethylenedioxyphenyl)-5-fluoro-N2-[2-(N-piperazino)carbonylbenzofuran-5-yl]-2,4-pyrimidinediamine] had an IC50 greater than 10 µM.
In the case of `O=C(c1cc2cc(Nc3ncc(F)c(Nc4cccc(O)c4)n3)ccc2o1)N1CCNCC1` [R926500, 5-Fluoro-N4-(3-hydroxyphenyl)-N2-[2-(N-piperazino)carbonylbenzofuran-5-yl]-2,4-pyrimidinediamine], the IC50 is greater than 10 µM.
The same measure, in the same setting: as for `O=C(COc1cccc(Nc2ncc(F)c(Nc3ccc4c(c3)OCCO4)n2)c1)N1CCNCC1` [R926504, N4-(3,4-Ethylenedioxyphenyl)-5-fluoro-N2-[3-(N-piperazino)carbonylmethyleneoxyphenyl]-2,4-pyrimidinediamine Hydrogen Chloride Salt], the figure is greater than 10 µM.

For another assay the test system is unchanged. The assay is described as follows: CHMC low cell density IgE activation: tryptase assay. It counts as cell-based. As to conditions: anti-IgE. The method in brief:
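CHMC resuspended in pre-warmed MT buffer at 1000-1500 cells/well (donor-dependent) and preincubated 1 hr at 37° C, then stimulated with anti-IgE for 30 min at 37° C; unstimulated wells got MT alone. Supernatant tryptase activity read with tryptase substrate after 30 min at room temperature.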
Compound `COC(=O)c1cc2cc(Nc3ncc(F)c(Nc4ccc5c(c4)NC(=O)C(C)(C)O5)n3)ccc2o1` [R940354, N4-[(2,2-Dimethyl-4H-benzo[1,4]oxazin-3-one)-6-yl]-5-fluoro-N2-(2-methoxycarbonylbenzofur-5-yl)-2,4-pyrimidinediamine] yielded an IC50 of 0.115 µM.
Compound `CNC(=O)COc1cccc(Nc2ncc(F)c(Nc3cnc4c(c3)OCCN4)n2)c1` [R945263, 5-Fluoro-N2-(3-methylaminocarbonylmethyleneoxyphenyl)-N4-[2H-pyrido[3,2-b]-1,4-oxazin-7-yl]-2,4-pyrimidinediamine] returned a 50% inhibitory concentration (IC50) of 1.64 µM.
`O=[N+]([O-])c1ccc(NCCO)c(Nc2ccnc(Nc3cc([N+](=O)[O-])ccc3NCCO)n2)c1` [R950156, N2,N4-Bis(2-hydroxyethyleneamino-5-nitrophenyl)-2,4-pyrimidinediamine] showed an IC50 greater than 10 µM.
`CC(=O)Nc1cccc(N(C(C)=O)c2ncc(F)c(N(C(C)=O)c3cccc(NC(C)=O)c3)n2)c1` [R950244, N2,N4-Bis(3-N-acetylaminophenyl)-5-fluoro-N2,N4-pyrimidinediacetylamine] displayed an IC50 greater than 10 µM.
For the compound `CC(=O)Nc1cccc(N(C(C)=O)c2ncc(F)c(N(C(C)=O)c3cccc(N(C(C)=O)C(C)=O)c3)n2)c1` [R950245, N4-(3-N,N-Diacetylaminophenyl)-N2-(3-N-acetylaminopheny)-5-fluoro-N2,N4-pyrimidinediacetylamine], the IC50 is greater than 10 µM.
Turning to `CC(=O)Nc1cccc(N(C(C)=O)c2nc(N(C(C)=O)c3cccc(N(C(C)=O)C(C)=O)c3)ncc2F)c1` [R950246, N4-(3-N-Acetylaminophenyl)-N2-(3-N,N-diacetylaminopheny)-5-fluoro-N2,N4-pyrimidinediacetylamine], the IC50 is greater than 10 µM.
With `CC(=O)N(C(C)=O)c1cccc(N(C(C)=O)c2ncc(F)c(N(C(C)=O)c3cccc(N(C(C)=O)C(C)=O)c3)n2)c1` [R950247, N2,N4-Bis(3-N,N-diacetylaminophenyl)-5-fluoro-N2,N4-pyrimidinediacetylamine], the concentration for half-maximal inhibition (IC50) was greater than 10 µM.
The same measure, in the same setting: the figure for `CNC(=O)COc1cccc(Nc2ncc(F)c(Nc3ccc4c(c3)C(=O)CCO4)n2)c1` [R950345, N4-(2,3-Dihydro-4-benzypyranon-6-yl)-5-fluoro-N2-[3-(N-methylamino)carbonylmethyleneoxyphenyl]-2,4-pyrimidinediamine] is 1.96 µM; for `CNC(=O)COc1cccc(Nc2ncc(F)c(Nc3ccc4c(c3)C(=NO)CCO4)n2)c1` [R950348, N4-(2,3-Dihydro-4-oxime-benzypyran-6-yl)-5-fluoro-N2-[3-(N-methylamino)carbonylmethyleneoxyphenyl]-2,4-pyrimidinediamine] it is 0.066 µM.
For `CNC(=O)COc1cccc(Nc2ncc(F)c(Nc3ccc(OC)c(CO)c3)n2)c1` [R950386, N4-(3-Hydroxymethylen-4-methoxyphenyl)-5-fluoro-N2-[3-(N-methylamino)carbonylmethyleneoxyphenyl]-2,4-pyrimidinediamine], inhibition was half-maximal at 0.973 µM (IC50).
`CCOc1ccc(Nc2nc(Nc3cccc(OCC(=O)NC)c3)ncc2F)cc1N` [R950388, N4-(3-Amino-4-ethoxyphenyl)-5-fluoro-N2-[3-(N-methylamino)carbonylmethyleneoxyphenyl]-2,4-pyrimidinediamine] came in with an IC50 of 2.52 µM.
The compound “N2-(N-Ethylcarbonylmethyleneoxy-1,4-benzoxazin-6-yl)-5-fluoro-N2-[3-hydroxyphenyl)phenyl]pyrimidinediamine [R908734]” returned an IC50 of 1.38 µM.
For “N4-(1,4-Benzoxazin-7-yl)-5-fluoro-N2-(3-hydroxyphenyl)-pyrimidinediamine [R908711]”, the IC50 came to 1.76 µM.
Turning to “N4-[3-(2-(N4-(3-aminomethylenephenyl)-5-fluoro-4-pyrimidineamine)-N-methylaminomethylene)-phenyl]-5-fluoro-N2-[3-(methylaminocarbonylmethyleneoxy)phenyl]-2,4-pyrimidineamine [R940311]”, the half-inhibitory concentration (IC50) was 1.95 µM.

Source of the values: patent publication US9499493B2, “2,4-pyrimidinediamine compounds and their uses” (Rigel Pharmaceuticals, Inc., priority 2002, dated 2016).
